Source: patent publication US10561703B2, “Method of modulating sex hormone levels using a sex hormone secretion modulator” (GEMVAX & KAEL CO., LTD., priority 2013, dated 2020)

Tested on: Testosterone
Assay: Testosterone level in blood (serum CLIA) after repeated sc PEP-1
Assay type: in vivo, SD rats
Description: PEP-1 (peptide of SEQ ID NO: 1), lyophilized white powder, obtained according to the method mentioned in example 1 was dissolved in 0.9% of saline, considering the correction factor of PEP-1 (purity: 94.13%, content: 92.36%, correction factor: 1.15). 50 mg/mL stock solution was further diluted into 20 mg/mL, 2 mg/mL, and 1 mg/mL with 0.9% saline, and stored at 4° C. for a week until the use.
The purpose of this example is to confirm the change of sexual hormones in blood from SD rats with 7 days repeated daily administration of SEQ ID NO: 1 peptide, PEP-1. This experiment followed the Ethics Regulation of Animal Test by KAMSI Inc. (Korea Animal Medical Science Institute). In addition, this experiment, Non-GLP experiment, referred to the MFDS (Ministry of Food and Drug Safety) notification; Agent 2013-40 (5th April 2013), Principles of Good Laboratory Practice (1997).
SPF Rats (Crlj:CD(SD)) were purchased from ORIENTBio Inc. (Mokdong-ri, Buk-myeon, Gapyeong-gun, Gyeonggi-do, Republic of Korea). 75 male (6.5 weeks old and 190˜210 g) and 75 female (6.5 weeks old and 160˜180 g) rats were monitored for 4 days, and 64 of male and female rats (each) were selected for the experiment. Raising condition is as follows; 23±3° C. of temperature, […] of relative humidity, 10˜20 times/hr of number of air changes, 12 hours (8 a.m.˜8 p.m.) of lighting with 150˜300 Lux of intensity.
64 male and female […] (mentioned above) were divided into 8 groups. Administration regimen, for example, drugs, routes, dosages, and volumes were as follows:
The detailed administration regimen is as follows; once a day, twice a day and twice a week in each experimental group. Injection initiated at 10 a.m. every day, and each rat was injected at one minute intervals. Rats in Group 9, 10, 13 and 14 were injected twice a week. Administration of high dose test agent preceded that of low dose. The volume of injection was calculated using recently measured weight of rats, and it was 5 mL/kg. Subcutaneous injection was performed as follows; assistant tilted the back of rat upward, and experimenter sterilized the back of rat with 70% alcohol, followed by subcutaneous injection of test agent with 26 G syringe.
1.4 mL of blood sample (0.7 mL of serum) was collected after measurement of weight (Day 0). Next day (1 Day), 1.4 mL of blood sample (0.7 mL of serum) was collected twice after injection of test agent (4 hrs and 8 hrs after administration of test agent). For next 6 days (Day 2˜Day 7), 1.4 mL of blood was extracted once everyday (4 hours after injection of test agent). Dose and volume of test agent of each group followed the Table 3, and injection time zone was same every day. Blood was extracted from the jugular vein, and left at room temperature for 30 minutes. Serum was separated using centrifugation (10,000 rpm for 5 minutes), and stored at −70±5° C. in Deep freezer until the use. Blood extraction from each subject was done in the same time zone every day.
A CLIA (Chemi-Luminescence Immune Assay) Kit was used to analyze Testosterone, Estradiol E2, FSH (Follicle stimulating hormone), and LH (Luteinizing hormone). Analysis was completed within 48 hrs after blood extraction (Laboratory Medicine Department, Chung-Ang University Hospital), and detailed method is as follows; One-way ANOVA was used to verify the comparison between the vehicle and PEP-1, and between different doses of PEP-1. For further analysis, Duncan test was used as parametric test and Dunnett's test as non-parametric test. p<0.05 represents the statistical significance, and all statistical analysis was carried out with SPSS 10.1.
Testosterone was analyzed using the samples prepared from example 2. 15 μL of serum was used for analysis. Fundamentals of analysis is competitive immunoassay based on direct chemi-luminescent. As mentioned in example 2, CLIA (Chemi-luminescence immune assay) Kit was used for Testosterone analysis, following the manufacture's protocol. […]

Sequence: EARPALLTSRLRFIPK (listed as Homo sapiens) [PEP-1, hormone secretion modulator / GnRH analog]
- Testosterone level in blood (G3 Female 5 mg/kg sc 1/day x7, 7 days): 2.91 ng/dL
- Testosterone level in blood (G4 Male 5 mg/kg sc 1/day x7, 4 hr): 0.12 ng/dL
- Testosterone level in blood (G4 Male 5 mg/kg sc 1/day x7, 8 hr): 0.06 ng/dL
- Testosterone level in blood (G4 Male 5 mg/kg sc 1/day x7, 2 days): 0.04 ng/dL
- Testosterone level in blood (G4 Male 5 mg/kg sc 1/day x7, 3 days): 0.06 ng/dL
- Testosterone level in blood (G4 Male 5 mg/kg sc 1/day x7, 4 days): 0.15 ng/dL
- Testosterone level in blood (G4 Male 5 mg/kg sc 1/day x7, 5 days): 0.13 ng/dL
- Testosterone level in blood (G4 Male 5 mg/kg sc 1/day x7, 6 days): 0.19 ng/dL
- Testosterone level in blood (G4 Male 5 mg/kg sc 1/day x7, 7 days): 0.19 ng/dL
- Testosterone level in blood (G4 Male 5 mg/kg sc 1/day x7, pre): 0.2 ng/dL
- Testosterone level in blood (G6 Male 10 mg/kg sc 1/day x7, 4 hr): 0.15 ng/dL
- Testosterone level in blood (G6 Male 10 mg/kg sc 1/day x7, 8 hr): 0.01 ng/dL
- Testosterone level in blood (G6 Male 10 mg/kg sc 1/day x7, 2 days): 0.01 ng/dL
- Testosterone level in blood (G6 Male 10 mg/kg sc 1/day x7, 3 days): 0.05 ng/dL
- Testosterone level in blood (G6 Male 10 mg/kg sc 1/day x7, 4 days): 0.12 ng/dL
- Testosterone level in blood (G6 Male 10 mg/kg sc 1/day x7, 5 days): 0.1 ng/dL
- Testosterone level in blood (G6 Male 10 mg/kg sc 1/day x7, 6 days): 0.12 ng/dL
- Testosterone level in blood (G6 Male 10 mg/kg sc 1/day x7, 7 days): 0.11 ng/dL
- Testosterone level in blood (G6 Male 10 mg/kg sc 1/day x7, pre): 0.13 ng/dL
- Testosterone level in blood (G8 Male 10 mg/kg sc 2/day x4, 4 hr): 0.12 ng/dL
- Testosterone level in blood (G8 Male 10 mg/kg sc 2/day x4, 8 hr): 0.04 ng/dL
- Testosterone level in blood (G8 Male 10 mg/kg sc 2/day x4, 2 days): 0.01 ng/dL
- Testosterone level in blood (G8 Male 10 mg/kg sc 2/day x4, 3 days): 0.07 ng/dL
- Testosterone level in blood (G8 Male 10 mg/kg sc 2/day x4, 4 days): 0.05 ng/dL
- Testosterone level in blood (G8 Male 10 mg/kg sc 2/day x4, 5 days): 0.18 ng/dL
- Testosterone level in blood (G8 Male 10 mg/kg sc 2/day x4, 6 days): 0.08 ng/dL
- Testosterone level in blood (G8 Male 10 mg/kg sc 2/day x4, 7 days): 0.12 ng/dL
- Testosterone level in blood (G8 Male 10 mg/kg sc 2/day x4, pre): 0.17 ng/dL
- Testosterone level in blood (G9 Female 10 mg/kg sc 2/week x2 (days 1,7), 4 hr): 7.92 ng/dL
- Testosterone level in blood (G9 Female 10 mg/kg sc 2/week x2 (days 1,7), 8 hr): 7.57 ng/dL
- Testosterone level in blood (G9 Female 10 mg/kg sc 2/week x2 (days 1,7), 2 days): 0.9 ng/dL
- Testosterone level in blood (G9 Female 10 mg/kg sc 2/week x2 (days 1,7), 3 days): 1.05 ng/dL
- Testosterone level in blood (G9 Female 10 mg/kg sc 2/week x2 (days 1,7), 4 days): 1.21 ng/dL
- Testosterone level in blood (G9 Female 10 mg/kg sc 2/week x2 (days 1,7), 5 days): 1.73 ng/dL
- Testosterone level in blood (G9 Female 10 mg/kg sc 2/week x2 (days 1,7), 6 days): 1.67 ng/dL
- Testosterone level in blood (G9 Female 10 mg/kg sc 2/week x2 (days 1,7), 7 days): 9.43 ng/dL
- Testosterone level in blood (G9 Female 10 mg/kg sc 2/week x2 (days 1,7), pre): 2.3 ng/dL
- Testosterone level in blood (G10 Male 10 mg/kg sc 2/week x2 (days 1,7), 4 hr): 0.16 ng/dL
- Testosterone level in blood (G10 Male 10 mg/kg sc 2/week x2 (days 1,7), 8 hr): 0.02 ng/dL
- Testosterone level in blood (G10 Male 10 mg/kg sc 2/week x2 (days 1,7), 2 days): 0 ng/dL
- Testosterone level in blood (G10 Male 10 mg/kg sc 2/week x2 (days 1,7), 3 days): 0.06 ng/dL
- Testosterone level in blood (G10 Male 10 mg/kg sc 2/week x2 (days 1,7), 4 days): 0.17 ng/dL
- Testosterone level in blood (G10 Male 10 mg/kg sc 2/week x2 (days 1,7), 5 days): 0.08 ng/dL
- Testosterone level in blood (G10 Male 10 mg/kg sc 2/week x2 (days 1,7), 6 days): 0.1 ng/dL
- Testosterone level in blood (G10 Male 10 mg/kg sc 2/week x2 (days 1,7), 7 days): 0.13 ng/dL
- Testosterone level in blood (G10 Male 10 mg/kg sc 2/week x2 (days 1,7), pre): 0.15 ng/dL
- Testosterone level in blood (G11 Female 100 mg/kg sc 1/day x7, 4 hr): 7.73 ng/dL
- Testosterone level in blood (G11 Female 100 mg/kg sc 1/day x7, 8 hr): 7.41 ng/dL
- Testosterone level in blood (G11 Female 100 mg/kg sc 1/day x7, 2 days): 3.92 ng/dL
- Testosterone level in blood (G11 Female 100 mg/kg sc 1/day x7, 3 days): 1.55 ng/dL
- Testosterone level in blood (G11 Female 100 mg/kg sc 1/day x7, 4 days): 0.63 ng/dL
- Testosterone level in blood (G11 Female 100 mg/kg sc 1/day x7, 5 days): 0.55 ng/dL
